These results are taken from patent publication US8623899B2, “Bis-benzimidazole derivatives as hepatitis C virus inhibitors” (Janssen Research & Development Ireland, priority 2009, dated 2014).

For the assay, the system named is HCV type 1b replicon in Huh-7 luc/neo (Huh-Luc) cells. Kind of assay: HCV replicon assay (Huh-Luc, luciferase readout). Format: cell-based. The note with it: Hepatitis C virus, Huh-7, 72 h, luciferase activity, incubation of three days, read-out: HCV-REP-HUH7LUC_EC50. The text has this:
The compounds of formula (I) were examined for inhibitory activity in the HCV replicon. This cellular assay is based on a bicistronic expression construct, as described by Lohmann et al. (1999) Science vol. 285 pp. 110-113 with modifications described by Krieger et al. (2001) Journal of Virology 75: 4614-4624, in a multi-target screening strategy.
In essence, the method was as follows:
The assay utilized the stably transfected cell line Huh-7 luc/neo (hereafter referred to as Huh-Luc). This cell line harbors an RNA encoding a bicistronic expression construct comprising the wild type NS3-NS5B regions of HCV type 1b translated from an Internal Ribosome Entry Site (IRES) from encephalomyocarditis virus (EMCV), preceded by a reporter portion (FfL-luciferase), and a selectable marker portion (neo^R, neomycine phosphotransferase). The construct is flanked by 5′ and 3′ NTRs (non-translated regions) from HCV type 1b. Continued culture of the replicon cells in the presence of G418 (neo^R) is dependent on the replication of the HCV RNA. The stably transfected replicon cells that express HCV RNA, which replicates autonomously and to high levels, encoding inter alia luciferase, were used for screening the antiviral compounds.
The replicon cells were plated in 384 well plates in the presence of the test and control compounds which were added in various concentrations. Following an incubation of three days, HCV replication was measured by assaying luciferase activity (using standard luciferase assay substrates and reagents and a Perkin Elmer ViewLux™ ultraHTS microplate imager). Replicon cells in the control cultures have high luciferase expression in the absence of any inhibitor. The inhibitory activity of the compound on luciferase activity was monitored on the Huh-Luc cells, enabling a dose-response curve for each test compound. EC50 values were then calculated, which represent the amount of compound required to decrease the level of detected luciferase activity by 50%, or more specifically, to reduce the ability of the genetically linked HCV replicon RNA to replicate.

As to `O=C(C(O)Cc1cccnc1)N1CCC[C@H]1c1nc2ccc(-c3ccc(-c4ccc5nc([C@@H]6CCCN6C(=O)C(O)Cc6cccnc6)[nH]c5c4)cc3)cc2[nH]1` (mixture of isomers) [Compound 35], the EC50 is 22 nM.
The value for `O=C(C(c1ccccc1)N1C2CCC1CC2)N1CCC[C@H]1c1nc2ccc(-c3ccc(-c4ccc5nc([C@@H]6CCCN6C(=O)C(c6ccccc6)N6C7CCC6CC7)[nH]c5c4)cc3)cc2[nH]1` (mixture of isomers) [Compound 43] was 3.2 nM; that for `O=C(C(c1ccccc1)N1CCCC(F)(F)C1)N1CCC[C@H]1c1nc2ccc(-c3ccc(-c4ccc5nc([C@@H]6CCCN6C(=O)C(c6ccccc6)N6CCCC(F)(F)C6)[nH]c5c4)cc3)cc2[nH]1` (mixture of isomers) [Compound 44] was 0.22 nM.
On to `O=C(C(Nc1ccccc1)c1ccc(Cl)cc1)N1CCC[C@H]1c1nc2ccc(-c3ccc(-c4ccc5nc([C@@H]6CCCN6C(=O)C(Nc6ccccc6)c6ccc(Cl)cc6)[nH]c5c4)cc3)cc2[nH]1` (mixture of isomers) [Compound 47], for which the EC50 came to 1.5 nM.
The value for `COC(=O)NC(C(=O)N1CCC[C@H]1c1nc2ccc(-c3ccc(-c4ccc5nc([C@@H]6CCCN6C(=O)C(NC(=O)OC)C6CCOCC6)[nH]c5c4)cc3)cc2[nH]1)C1CCOCC1` (mixture of isomers) [Compound 55] was 0.18 nM; that for `O=C(Cc1ccccc1)N1CCC[C@H]1c1nc2ccc(-c3ccc(-c4ccc5nc([C@@H]6CCCN6C(=O)Cc6ccccc6)[nH]c5c4)cc3)cc2[nH]1` [Compound 1] was 0.1 nM; that for `COC(=O)N[C@H](C(=O)N1CCC[C@H]1c1nc2cc(-c3ccc(-c4ccc5nc([C@@H]6CCCN6C(=O)[C@@H](NC(=O)OC)[C@@H](C)OC)[nH]c5c4)cc3)ccc2[nH]1)[C@@H](C)OC` [Compound 2] was 0.021 nM.
In the case of `O=C([C@H]1CCCO1)N1CCC[C@H]1c1nc2ccc(-c3ccc(-c4ccc5nc([C@@H]6CCCN6C(=O)[C@H]6CCCO6)[nH]c5c4)cc3)cc2[nH]1` [Compound 3] it was 20 nM; in that of `CC(=O)N[C@@H](C(=O)N1CCC[C@H]1c1nc2ccc(-c3ccc(-c4ccc5nc([C@@H]6CCCN6C(=O)[C@H](NC(C)=O)c6ccccc6)[nH]c5c4)cc3)cc2[nH]1)c1ccccc1` [Compound 4], 0.18 nM; in that of `CN(C)C(C(=O)N1CCC[C@H]1c1nc2ccc(-c3ccc(-c4ccc5nc([C@@H]6CCCN6C(=O)C(c6ccc(Cl)cc6)N(C)C)[nH]c5c4)cc3)cc2[nH]1)c1ccc(Cl)cc1` (stereo partly shown) [Compound 5], 0.59 nM.
As to `COc1cccc(CCC(=O)N2CCC[C@H]2c2nc3ccc(-c4ccc(-c5ccc6nc([C@@H]7CCCN7C(=O)CCc7cccc(OC)c7)[nH]c6c5)cc4)cc3[nH]2)c1` [Compound 6], the EC50 is 500 nM.
Consider `O=C([C@@H](O)c1ccccc1)N1CCC[C@H]1c1nc2ccc(-c3ccc(-c4ccc5nc([C@@H]6CCCN6C(=O)[C@@H](O)c6ccccc6)[nH]c5c4)cc3)cc2[nH]1` [Compound 7], for which the EC50 was 0.057 nM.
As for `O=C(CCc1ccccc1F)N1CCC[C@H]1c1nc2ccc(-c3ccc(-c4ccc5nc([C@@H]6CCCN6C(=O)CCc6ccccc6F)[nH]c5c4)cc3)cc2[nH]1` [Compound 8], the EC50 turned out to be 160 nM.
In the case of `COC(=O)NC1(C(=O)N2CCC[C@H]2c2nc3ccc(-c4ccc(-c5ccc6nc([C@@H]7CCCN7C(=O)C7(NC(=O)OC)CC7)[nH]c6c5)cc4)cc3[nH]2)CC1` [Compound 9] it was 1 nM.
The value for `COc1c(F)cc(CC(=O)N2CCC[C@H]2c2nc3ccc(-c4ccc(-c5ccc6nc([C@@H]7CCCN7C(=O)Cc7cc(F)c(OC)c(F)c7)[nH]c6c5)cc4)cc3[nH]2)cc1F` [Compound 10] was 130 nM; that for `O=C(Cc1ccccc1OC(F)(F)F)N1CCC[C@H]1c1nc2ccc(-c3ccc(-c4ccc5nc([C@@H]6CCCN6C(=O)Cc6ccccc6OC(F)(F)F)[nH]c5c4)cc3)cc2[nH]1` [Compound 11] was 160 nM.
In the case of `O=C(Cc1cccnc1)N1CCC[C@H]1c1nc2ccc(-c3ccc(-c4ccc5nc([C@@H]6CCCN6C(=O)Cc6cccnc6)[nH]c5c4)cc3)cc2[nH]1` [Compound 12] it was 0.15 nM.
Consider `O=C(CCc1cccnc1)N1CCC[C@H]1c1nc2ccc(-c3ccc(-c4ccc5nc([C@@H]6CCCN6C(=O)CCc6cccnc6)[nH]c5c4)cc3)cc2[nH]1` [Compound 13], for which the EC50 came out at 0.5 nM.
For the compound `O=C([C@@H]1CCCO1)N1CCC[C@H]1c1nc2ccc(-c3ccc(-c4ccc5nc([C@@H]6CCCN6C(=O)[C@@H]6CCCO6)[nH]c5c4)cc3)cc2[nH]1` [Compound 14], the EC50 amounted to 36 nM.
In the case of `O=C(C(=O)N1CCC[C@H]1c1nc2ccc(-c3ccc(-c4ccc5nc([C@@H]6CCCN6C(=O)C(=O)c6ccccc6)[nH]c5c4)cc3)cc2[nH]1)c1ccccc1` [Compound 15] it was 40 nM.
For the compound `O=C(Cc1ccc2c(c1)OCO2)N1CCC[C@H]1c1nc2ccc(-c3ccc(-c4ccc5nc([C@@H]6CCCN6C(=O)Cc6ccc7c(c6)OCO7)[nH]c5c4)cc3)cc2[nH]1` [Compound 16], the EC50 turned out to be 69 nM.
Take `CCN(CC)[C@@H](C(=O)N1CCC[C@H]1c1nc2ccc(-c3ccc(-c4ccc5nc([C@@H]6CCCN6C(=O)[C@@H](c6ccccc6)N(CC)CC)[nH]c5c4)cc3)cc2[nH]1)c1ccccc1` [Compound 17]: the EC50 came out at 0.03 nM.
The value for `CN(C)CCC(=O)N1CCC[C@H]1c1nc2ccc(-c3ccc(-c4ccc5nc([C@@H]6CCCN6C(=O)CCN(C)C)[nH]c5c4)cc3)cc2[nH]1` [Compound 18] was 49 nM.
With `O=C(C(c1ccccc1)n1ccnc1)N1CCC[C@H]1c1nc2ccc(-c3ccc(-c4ccc5nc([C@@H]6CCCN6C(=O)C(c6ccccc6)n6ccnc6)[nH]c5c4)cc3)cc2[nH]1` (stereo partly shown) [Compound 19], the EC50 came to 0.45 nM.
As for `O=C([C@@H](c1ccccc1)N1CCCCC1)N1CCC[C@H]1c1nc2ccc(-c3ccc(-c4ccc5nc([C@@H]6CCCN6C(=O)[C@@H](c6ccccc6)N6CCCCC6)[nH]c5c4)cc3)cc2[nH]1` [Compound 20], the EC50 came out at 0.061 nM.
In the case of `O=C(c1ccoc1)N1CCC[C@H]1c1nc2ccc(-c3ccc(-c4ccc5nc([C@@H]6CCCN6C(=O)c6ccoc6)[nH]c5c4)cc3)cc2[nH]1` [Compound 21], the EC50 came to 58 nM.
In the case of `CCC(=O)N[C@@H](C(=O)N1CCC[C@H]1c1nc2ccc(-c3ccc(-c4ccc5nc([C@@H]6CCCN6C(=O)[C@H](NC(=O)CC)c6ccccc6)[nH]c5c4)cc3)cc2[nH]1)c1ccccc1` [Compound 22], the EC50 came to 0.034 nM.
Consider `CNC(=O)N[C@H](C(=O)N1CCC[C@H]1c1nc2ccc(-c3ccc(-c4ccc5nc([C@@H]6CCCN6C(=O)[C@@H](NC(=O)NC)C(C)C)[nH]c5c4)cc3)cc2[nH]1)C(C)C` [Compound 23], for which the EC50 came out at 0.57 nM.
Take `Cc1nc(C(=O)N2CCC[C@H]2c2nc3ccc(-c4ccc(-c5ccc6nc([C@@H]7CCCN7C(=O)c7nc(C)oc7C)[nH]c6c5)cc4)cc3[nH]2)c(C)o1` [Compound 24]: the EC50 was 1.4 nM.
In the case of `O=C(c1ccccn1)N1CCC[C@H]1c1nc2ccc(-c3ccc(-c4ccc5nc([C@@H]6CCCN6C(=O)c6ccccn6)[nH]c5c4)cc3)cc2[nH]1` [Compound 25] it was 1.7 nM; in that of `CC(C)C[C@@H](C(=O)N1CCC[C@H]1c1nc2ccc(-c3ccc(-c4ccc5nc([C@@H]6CCCN6C(=O)[C@H](CC(C)C)N(C)C)[nH]c5c4)cc3)cc2[nH]1)N(C)C` [Compound 26], 76 nM.
